Data as given in US12514858B2, “CD38 inhibitors” (Astellas Engineered Small Molecules US, Incorporated, priority 2020, dated 2026).
“And” between values parts separate entries of the source, which are not always exact repeats. Identical values can stand only once.

Target: Human CD38 (Homo sapiens (Human), UniProt P28907)
Assay: Determination of IC50 against human CD38 (CD38 Inhibitor Screening Assay Kit, glycohydrolase activity, fluorescence)
Type: biochemical
Settings: CD38 hydrolase enzyme, 30 min preincubation at room temperature, F-NAD substrate, excitation 300 nm, emission 410 nm; read-out: hCD38 IC50
Method: CD38 hydrolase buffer (4×) was thawed on ice and 1×CD38 hydrolase buffer was prepared by diluting 4×CD38 hydrolase buffer with water. CD38 hydrolase enzyme was diluted to […] with 1×CD38 hydrolase buffer (10 ng/well). Master mix was prepared by mixing equal volumes of water and CD38 hydrolase buffer (4×) and 10 μl of the mix was added to all the wells. Following master mix addition, 10 μl of the inhibitors and 20 μl of CD38 hydrolase enzyme were added to the wells. For wells designated blank, 10 μl and 20 μl of 1× CD38 hydrolase buffer was added respectively in place of […]. The plate was covered and incubated 30 min at room temperature with slow shaking at 400 rpm. After 30 min incubation, the plate was removed and 10 μl of diluted F-NAD substrate was added to all the wells. The plate is incubated for 10 min, spun at 1200 rpm for 30 secs to remove bubbles and read in Tecan Spark using a fluorometer setting of excitation 300 nm and emission 410 nm. The reading for the blank was subtracted from all the values. IC50 for the test compounds were determined by using Graphpad prism software v7.0.

Human CD38, sequence (P28907 whole entry): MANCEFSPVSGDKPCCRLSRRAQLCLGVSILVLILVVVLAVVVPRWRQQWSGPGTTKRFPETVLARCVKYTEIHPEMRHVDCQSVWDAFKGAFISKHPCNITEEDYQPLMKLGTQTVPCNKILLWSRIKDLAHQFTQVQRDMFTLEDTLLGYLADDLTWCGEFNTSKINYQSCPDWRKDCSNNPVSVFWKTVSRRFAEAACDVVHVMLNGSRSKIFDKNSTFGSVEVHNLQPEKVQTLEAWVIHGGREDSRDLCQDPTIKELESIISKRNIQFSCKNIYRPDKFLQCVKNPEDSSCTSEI

COCCO[C@H]1CC[C@H](NC(=O)c2cc(C(N)=O)nc(-n3ccnc3)n2)CC1 [Ex. 48, 2-(1H-imidazol-1-yl)-N-((1r,4r)-4-(2-methoxyethoxy)cyclohexyl)pyrimidine-4,6-dicarboxamide] gave an IC50 of 18 nM.
With COCCO[C@H]1CC[C@H](NC(=O)c2cc(CO)nc(-n3ccnc3)n2)CC1 [Ex. 49, 6-(hydroxymethyl)-2-(1H-imidazol-1-yl)-N-((1r,4r)-4-(2-methoxyethoxy)cyclohexyl)pyrimidine-4-carboxamide] the IC50 was 15 nM.
[2H]c1nc([2H])n(-c2nc(C)cc(C(=O)N[C@H]3CC[C@H](OCCOC)CC3)n2)c1[2H] [Ex. 50, 2-(1H-imidazol-1-yl-d3)-N-((1r,4r)-4-(2-methoxyethoxy)cyclohexyl)-6-methylpyrimidine-4-carboxamide] was tested, and the IC50 was 14 nM.
In the case of COCCO[C@H]1CC[C@H](NC(=O)c2cc(CF)nc(-n3ccnc3)n2)CC1 [Ex. 51, 6-(fluoromethyl)-2-(1H-imidazol-1-yl)-N-((1r,4r)-4-(2-methoxyethoxy)cyclohexyl)pyrimidine-4-carboxamide], the IC50 is reported as 17 nM.
Work on COCCO[C@H]1CC[C@H](NC(=O)c2cc(C(F)F)nc(-n3ccnc3)n2)CC1 [Ex. 52, 6-(Difluoromethyl)-2-(1H-imidazol-1-yl)-N-((1r,4r)-4-(2-methoxyethoxy)cyclohexyl)pyrimidine-4-carboxamide] yielded an IC50 of 89 nM.
For CCS(=O)(=O)N[C@H]1CC[C@H](NC(=O)c2ccnc(-n3ccnc3)n2)CC1 [Ex. 53, N-((1r,4r)-4-(ethylsulfonamido)cyclohexyl)-2-(1H-imidazol-1-yl)pyrimidine-4-carboxamide], the IC50 was 16.6 nM and 8.8 nM.
In the case of CO[C@]1(C)CC[C@@H](NC(=O)c2ccnc(-n3ccnc3)n2)CC1 [Ex. 54, 2-(1H-imidazol-1-yl)-N-((1r,4r)-4-methoxy-4-methylcyclohexyl)pyrimidine-4-carboxamide], the IC50 is reported as 28 nM.
With COCCO[C@H]1CC[C@H](NC(=O)c2cc(C3CC3)nc(-n3ccnc3)n2)CC1 [Ex. 56, 6-cyclopropyl-2-(1H-imidazol-1-yl)-N-((1r,4r)-4-(2-methoxyethoxy)cyclohexyl) pyrimidine-4-carboxamide] the IC50 was 50 nM.
Molecule C=Cc1cc(C(=O)N[C@H]2CC[C@H](OCCOC)CC2)nc(-n2ccnc2)c1 [Ex. 57, 6-(1H-imidazol-1-yl)-N-((1r,4r)-4-(2-methoxyethoxy)cyclohexyl)-4-vinylpicolinamide] has an IC50 of 40 nM.
CCO[C@H]1CC[C@H](NC(=O)c2ccnc(-n3ccnc3)n2)CC1 [Ex. 58, N-((1r,4r)-4-ethoxycyclohexyl)-2-(1H-imidazol-1-yl)pyrimidine-4-carboxamide] gave an IC50 of 16.5 nM.
COCCO[C@H]1CC[C@H](NC(=O)c2cc(C(F)F)cc(-n3ccnc3)n2)CC1 [Ex. 59, 4-(difluoromethyl)-6-(1H-imidazol-1-yl)-N-((1r,4r)-4-(2-methoxyethoxy)cyclohexyl)picolinamide] gave an IC50 of 20.9 nM.
With COCCO[C@H]1CC[C@@H](NC(=O)c2cc(C)nc(-n3ccnc3)n2)CC1 [Ex. 60, 2-(1H-imidazol-1-yl)-N-((1s,4s)-4-(2-methoxyethoxy)cyclohexyl)-6-methylpyrimidine-4-carboxamide] the IC50 was 2.4 nM.
In the case of COCCO[C@H]1CC[C@H](NC(=O)c2cc(OC)cc(-n3ccnc3)n2)CC1 [Ex. 62, 6-(1H-imidazol-1-yl)-4-methoxy-N-((1r,4r)-4-(2-methoxyethoxy)cyclohexyl) picolinamide], the IC50 is reported as 86.7 nM.
Molecule COCCO[C@H]1C[C@H](NC(=O)c2ccnc(-n3ccnc3)n2)C1 [Ex. 65, 2-(1H-imidazol-1-yl)-N-((1r,3r)-3-(2-methoxyethoxy)cyclobutyl)pyrimidine-4-carboxamide] has an IC50 of 227 nM.
